Values quoted from earlier work as cited in patent US20110244050A1, “PULSED-RELEASE SILDENAFIL COMPOSITION AND METHOD FOR PREPARING SAID COMPOSITION” (SIEGFRIED RHEIN S.A. DE C.V., priority 2008, published 2011).

Assays:
[1] = in vivo

In the case of `CCCc1nn(C)c2c(=O)[nH]c(-c3cc(S(=O)(=O)N4CCN(C)CC4)ccc3OCC)nc12` [sildenafil], the plasmatic elimination half-life [1] is listed as “about 4 hours”, the “solubility in acidic media” value (acidic media, like in the stomach) is listed as “adequate” and the “solubility in alkaline media” value (alkaline media, like that found in the intestine) is listed as “decreases markedly”.
